Measured values reported in patent US20230355617A1, “SMALL MOLECULE INHIBITORS OF LEMUR TYROSINE KINASE 3” (The University of Sussex, priority 2020, published 2023).
Like-named read-outs stand apart in the source and are kept apart here. Where a SMILES comes first, the peptide text is derived from it. The star is where a group is joined. Cbz = O=C(OCc1ccccc1)*

Key:
[1] = test system: FDCP1-parental; assay: FDCP1 cell-based model, parental cells; set-up: species or system murine
[2] = molecular target: T1, LMTK3 (Homo sapiens, UniProt Q96Q04); assay: 32P γ-ATP in vitro kinase assay, phosphorylation of HSP27 by LMTK3; assay type: biochemical; conditions: in vitro kinase assay; read-out: Approximate IC50
T1 construct: The wt kinase domain of LMTK3 (aa 134 to aa 444) was cloned into pOPINEneo; made in house; host or cells: Spodoptera frugiperda Sf9 (baculovirus)
T1 sequence (Q96Q04 105-415): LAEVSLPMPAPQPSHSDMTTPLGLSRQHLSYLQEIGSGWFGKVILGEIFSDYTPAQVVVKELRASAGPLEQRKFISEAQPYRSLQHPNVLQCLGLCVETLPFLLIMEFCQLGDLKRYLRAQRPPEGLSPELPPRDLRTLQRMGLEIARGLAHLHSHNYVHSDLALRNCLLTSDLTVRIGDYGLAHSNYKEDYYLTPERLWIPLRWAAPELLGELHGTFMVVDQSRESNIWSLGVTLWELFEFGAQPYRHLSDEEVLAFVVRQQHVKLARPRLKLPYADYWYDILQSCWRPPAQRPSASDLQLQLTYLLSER

[3] = molecular target: T2, LMTK3 (Homo sapiens, UniProt Q96Q04); assay: Western blotting of LMTK3 protein in BC cell lines; assay type: cell-based
T2 construct: endogenous in cells; host or cells: MCF7, T47D, MDA-MB-231
T2 sequence (Q96Q04 21-1460): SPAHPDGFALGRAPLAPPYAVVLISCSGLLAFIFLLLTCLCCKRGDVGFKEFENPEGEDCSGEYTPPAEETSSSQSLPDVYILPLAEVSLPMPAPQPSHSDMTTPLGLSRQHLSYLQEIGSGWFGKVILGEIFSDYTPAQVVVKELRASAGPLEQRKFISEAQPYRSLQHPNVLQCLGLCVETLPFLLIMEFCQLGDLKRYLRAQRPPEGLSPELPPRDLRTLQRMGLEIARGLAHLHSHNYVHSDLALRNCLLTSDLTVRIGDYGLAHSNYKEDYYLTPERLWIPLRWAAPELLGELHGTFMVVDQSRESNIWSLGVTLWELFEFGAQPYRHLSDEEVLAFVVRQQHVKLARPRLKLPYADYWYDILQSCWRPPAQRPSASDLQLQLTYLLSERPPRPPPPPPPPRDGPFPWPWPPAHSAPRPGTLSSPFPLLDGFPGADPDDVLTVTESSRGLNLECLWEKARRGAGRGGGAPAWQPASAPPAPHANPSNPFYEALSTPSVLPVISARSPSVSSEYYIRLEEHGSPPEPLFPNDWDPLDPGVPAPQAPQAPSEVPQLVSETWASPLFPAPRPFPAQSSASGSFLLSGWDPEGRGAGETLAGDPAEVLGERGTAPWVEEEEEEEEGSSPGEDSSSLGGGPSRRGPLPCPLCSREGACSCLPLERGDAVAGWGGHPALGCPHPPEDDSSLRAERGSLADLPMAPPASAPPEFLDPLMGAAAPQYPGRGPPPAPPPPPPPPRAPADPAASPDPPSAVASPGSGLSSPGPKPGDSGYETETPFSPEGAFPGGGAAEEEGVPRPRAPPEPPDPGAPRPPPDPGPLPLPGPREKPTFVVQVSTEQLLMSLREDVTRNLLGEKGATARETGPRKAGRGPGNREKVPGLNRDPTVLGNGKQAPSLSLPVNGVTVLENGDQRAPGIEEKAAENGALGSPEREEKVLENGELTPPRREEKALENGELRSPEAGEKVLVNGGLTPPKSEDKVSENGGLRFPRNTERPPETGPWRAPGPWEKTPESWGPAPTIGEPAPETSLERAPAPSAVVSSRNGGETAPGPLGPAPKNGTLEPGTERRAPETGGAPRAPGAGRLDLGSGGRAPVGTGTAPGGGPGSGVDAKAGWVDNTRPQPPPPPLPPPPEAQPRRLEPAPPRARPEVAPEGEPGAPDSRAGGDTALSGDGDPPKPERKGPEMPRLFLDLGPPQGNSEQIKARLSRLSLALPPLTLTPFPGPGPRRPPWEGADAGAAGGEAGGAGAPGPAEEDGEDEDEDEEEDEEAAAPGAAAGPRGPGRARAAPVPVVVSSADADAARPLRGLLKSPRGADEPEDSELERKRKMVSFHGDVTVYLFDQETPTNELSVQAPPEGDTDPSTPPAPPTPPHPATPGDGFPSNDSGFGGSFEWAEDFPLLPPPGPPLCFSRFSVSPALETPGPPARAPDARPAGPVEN

[4] = Pharmacokinetics after single IV, IP or PO dose; assay type: in vivo, mice
[5] = test system: ERα; assay: Western blotting of ERα protein in BC cell lines; assay type: cell-based, human; conditions: MCF7, T47D, MDA-MB-231

## Cc1ccc(-c2ccc3ncc(-c4cccc(OC(F)(F)F)c4)n3n2)cc1
[1]; Mus musculus, FDC-P1; read-out: FDCP1-parental IC50
  IC50: > 10 µM

## FC(F)(F)Oc1cccc(-c2cnc3ccc(Cl)nn23)c1
[1]; Mus musculus, FDC-P1, read-out: FDCP1-parental IC50
  IC50: > 10 µM

## FC(F)(F)Oc1cccc(-c2cnc3ccc(-c4ccccn4)nn23)c1 [Compound 337-1]
[2]
  IC50: 0.4 µM

## FC(F)(F)Oc1cccc(-c2cnc3ccc(-c4ccncc4)nn23)c1 [Compound C28, 6-(Pyridin-4-yl)-3-(3-(trifluoromethoxy)phenyl)imidazo[1,2-b]pyridazine]
[3]; MCF7, T47D, MDA-MB-231
  inhibition of LMTK3 protein levels in cancer cell lines: best inhibitor
[3]; MCF7, T47D, MDA-MB-231, increasing concentrations, different time points
  LMTK3 protein levels: time and dose-dependent degradation of LMTK3
[3]; MCF7, 10 μM, 24 h
  LMTK3 ubiquitination: increased LMTK3 ubiquitination
[4]; IP 10 mg/kg
  Cmax: 839 ng/mL
  T1/2: ~59 min
[4]; IV 1 mg/kg
  Cmax: 185 ng/mL
[4]; IV 5 mg/kg
  T1/2: ~10 min
  lethality of IV dose: lethal for some mice
[4]; IV 5 mg/kg, plasma
  Cmax: 1533 ng/mL
  time of peak concentration: 5 min
[4]; PO
  Cmax: 632 ng/mL
  T1/2: ~62 min
[4]; based on incomplete data from 5 mg/kg IV group
  peroral bioavailability (F): 54%
[5]
  ERα protein levels: decreased protein levels of ERα

## CC(C)C[C@@H](C=O)NC(=O)[C@H](CC(C)C)NC(=O)[C@H](CC(C)C)NC(=O)OCc1ccccc1 [MG132, reference compound] (Cbz-Leu-Leu-Leu-aldehyde)
[3]; 10 μM MG132 4 h, then 10 μM C28 24 h
  effect on C28-induced downregulation of LMTK3: able to prevent C28-induced downregulation of LMTK3
